Measured values published in patent publication US8329719B2, “Neuroprotective agents for the prevention and treatment of neurodegenerative diseases” (Lixte Biotechnology, Inc., priority 2008, dated 2012).
“Also recorded” adds a separate entry of the source. Each block holds one compound with its values, some of them ahead of it.

Legend:
[1] = system: p-Akt / total Akt in human glioblastoma cells, U87; assay: Induction of phosphorylated Akt in U87 cells in culture (western blot); type: cell-based; details: after 4 hours
Experimental: FIG. 3: Induction of phosphorylated Akt by Compound 100 in U87 cells in culture. • The human glioblastoma cells, U87, were exposed to compound 100 or vehicle alone. After 4 hours western blots were made for p-Akt, total Akt, and beta actin.
Human glioblastoma cells, U87, were grown in culture and exposed to Compound 100 or vehicle alone. After 4 hours, western blots were made for p-Akt, total Akt, and beta actin.

[2] = system: acetylated histone 3 and histone 4; assay: Acetylation of Histone 3 and Histone 4 in normal mouse brain (western blot); type: in vivo; details: for entry into the brain: mouse, given intraperitoneally, shown by histone acetylation; for acetylation of histone 3 and histone 4 in brain: normal mice, 0.03 mg/20 gram mouse, 4 hours of exposure, compared to control tissue
Experimental: FIG. 5: Induction of acetylation of Histone 3 and Histone 4 in normal mouse brain by Compound 100 and Compound 102. • Normal mice were treated with Compound 100 and Compound 102, 0.03 mg/20 gram mouse. After 4 hours of exposure, treated and control animals (vehicle alone) animals were sacrificed and western blots for acetylated histone 3 and histone 4 were made.
Normal mice were treated with Compound 100 or Compound 102 at a dose of 0.03 mg/20 gram mouse, or with vehicle. After 4 hours of exposure, treated and control animals were sacrificed and western blots for acetylated histone 3 and histone 4 were made.

[3] = system: p-Akt / total Akt in medulloblastoma cells, DAOY; assay: Induction of phosphorylated Akt in DAOY cells in culture (western blot); type: cell-based, human; details: after 4 hours
Experimental: FIG. 1: Induction of phosphorylated Akt by Compound 100 in DAOY cells in culture. • The medulloblastoma cells, DAOY, in culture were exposed to Compound 100, Compound 205 or vehicle alone. After 4 hours western blots were made for p-Akt, total Akt, and beta actin.
Medulloblastoma cells, DAOY, were grown in culture and exposed to Compound 100, […] or vehicle alone. After 4 hours western blots were made for p-Akt, total Akt and beta actin.

[4] = system: p-Akt / total Akt in human medulloblastoma DAOY xenografts; assay: Induction of phosphorylated Akt in DAOY cells growing as xenografts in SCID mice (western blot); type: in vivo; details: 0.03 mg/20 gram mouse, after 4 hours and 24 hours
Experimental: FIG. 2: Induction of phosphorylated Akt by Compound 100 in DAOY cells growing as xenografts in SCID mice. • SCID mice with human medulloblastoma cells, DAOY, implanted subcutaneously were treated with 0.03 mg/20 gram mouse with Compound 100 or vehicle alone. After 4 hours and 24 hours western blots were made for p-Akt, total Akt, and beta actin. Control cells (C) at both time points (only 24 hour point shown) had only trace amounts of p-Akt and substantial amounts of total Akt and beta actin.
Human medulloblastoma DAOY cells were implanted subcutaneously in SCID mice. Mice were then treated with 0.03 mg/20 gram mouse with Compound 100 or vehicle alone. After 4 hours and 24 hours, western blots were made for phosphorylated Akt (p-Akt), total Akt, and beta actin. Control cells at both time points had only trace amount of p-Akt and substantial amounts of total Akt and beta actin.

[5] = system: p-Akt / total Akt in human glioblastoma U87 xenografts; assay: Induction of phosphorylated Akt in U87 cells growing as xenografts in SCID mice (western blot); type: in vivo; details: 0.03 mg/20 gram mouse, after 4 hours
Experimental: FIG. 4: Induction of phosphorylated Akt by Compound 100 in U87 cells growing as xenografts in SCID mice. • SCID mice with human glioblastoma cells, U87, implanted subcutaneously were treated with 0.03 mg/20 gram mouse with Compound 100 or vehicle alone. After 4 hours, western blots were made for p-Akt, total Akt, and beta actin.
Human glioblastoma U87 cells were implanted subcutaneously in SCID mice. Mice were then treated with 0.03 mg/20 gram mouse with Compound 100 or vehicle alone. After 4 hours, western blots were made for p-Akt, total Akt, and beta actin.

Akt = Akt phosphorylation in the cell lines tested growing as xenografts in SCID mice; type: in vivo; details: given intraperitoneally
Description: The compounds increase the phosphorylation of several regulatory proteins including Akt. At low doses that are non-toxic to mice, these compounds slightly stimulate cell proliferation and increases phosphorylation of Akt in human cancer cell lines tested including SH-SY5Y.

protein phosphatase 2A = protein phosphatase 2A (Homo sapiens, UniProt P67775); assay: Inhibition of protein phosphatase 2A; type: biochemical
Chain of protein phosphatase 2A (P67775 whole entry): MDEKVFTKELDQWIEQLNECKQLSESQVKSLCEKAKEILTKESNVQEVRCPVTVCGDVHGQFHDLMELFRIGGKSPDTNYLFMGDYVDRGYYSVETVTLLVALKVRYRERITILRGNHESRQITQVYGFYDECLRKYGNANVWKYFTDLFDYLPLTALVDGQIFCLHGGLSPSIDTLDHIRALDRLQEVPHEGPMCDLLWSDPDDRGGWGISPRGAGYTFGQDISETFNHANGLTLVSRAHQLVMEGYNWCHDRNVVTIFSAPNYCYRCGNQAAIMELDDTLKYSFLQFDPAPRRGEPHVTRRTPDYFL

[6] = system: primary rat cortical neurons; assay: Neurite extension after Calcein staining; type: cell-based; details: 250 and 500 nM
Experimental: Neurite extension was evaluated after Calcein staining using commercially available software.

[7] = system: NMDA type response to glutamate in primary rat cortical neurons; assay: Calcium response of cultured neurons to acute glutamate exposure; type: cell-based; details: for calcium response to 200 uM glutamate versus DMSO control: 500 nM compound, 24 h prior to glutamate, single study; for average % increase in response to glutamate exposure: average of 4 separate experiments (FIG. 19)
Description: To assess the effects of compound 102 and compound 201, independently, on neuronal function, the ability of the neurons in a culture dish to respond to exposure to glutamate was studied. In vitro, neurons respond to glutamate with the activation of several receptors associated with different transducing mechanisms. The assortment of glutamate sensitive receptors in a given neuronal population depends on maturation and differentiation. After seven days in culture, there is an assortment of glutamate receptors, including the AMPA/Kainate and NMDA receptors. AMPA/Kainate receptors are in general maximally expressed in the first few days in vitro followed by a gradual decline, while NMDA receptor expression increases over time, reaching a maximum after 7 days in vitro. AMPA/Kainate responses to exposure to glutamate as measured by calcium flux are characterized by fast desensitization (i.e. very little measurable calcium increase), while NMDA responses are characterized by an elevation of calcium concentration that persists as long as glutamate is applied. In the absence of test drug, there was variability in glutamate responsiveness dependent on NMDA receptor expression. A typical response of neurons in culture to glutamate characteristic of the NMDA receptors consists of a rapid increase and a high plateau phase of calcium (FIGS. 8-10). […] This modulation is compatible with a positive neurotrophic effect of compound 201.

[8] = system: primary embryonal rat cortical neuronal cells; assay: Survival of primary cortical neurons after environmental stress (growth factor deficient medium 1 hour); type: cell-based; details: 500 nM, cell counts at 3, 6, 13 and 23 days in culture, n=4
Experimental: FIG. 6. Photomicrographs of primary embryonal rat cortical neuronal cells at 23 days subjected to environmental stress by exposure to growth factor deficient medium for 1 hour on day 3 of culture.
FIG. 7. Average number of primary embryonal rat cortical neuronal cells at 3, 6, 13, and 23 days in culture (n=4). • All cultures were exposed to growth factor deficient medium for 1 hour on day 3 followed by of culture in complete medium containing no supplement (control), drug vehicle (0.05% DMSO), compound 102 (500 nM), or compound 201 (500 nM).
Neurons were chronically or acutely treated with each compound and exposed to environmental stress (replacement of the culture medium with a saline PBS based solution for one hour followed by removal of the PBS medium and restoration of standard neuronal culture medium) and then observed for survival (FIG. 6).

HDAC = HDAC inhibition; type: biochemical

SMILES: CN1CCN(C(=O)C2C(C(=O)O)[C@H]3CC[C@@H]2O3)CC1 (stereo partly shown) [Compound 100]
p-Akt (western blot) [1]: induction of p-Akt
total Akt relative to beta actin (western blot) [1]: increase in total Akt relative to beta actin
entry into the brain [2]: properties that enhance their entry into the brain
acetylation of histone 3 and histone 4 in brain [2]: increased acetylation of the histones
p-Akt (western blot) [3]: induction of p-Akt
total Akt relative to beta actin (western blot) [3]: increase in total Akt relative to beta actin
p-Akt (western blot) [4]: induction of p-Akt
total Akt relative to beta actin (western blot) [4]: increase in total Akt relative to beta actin
p-Akt (western blot) [5]: induction of p-Akt
total Akt relative to beta actin (western blot) [5]: increase in total Akt relative to beta actin
Akt phosphorylation in xenografts (Akt): increased Akt phosphorylation
inhibition of protein phosphatase 2A (protein phosphatase 2A): inhibit protein phosphatase 2A

SMILES: CC(C)(C)OC(=O)N1CCN(C(=O)C2C(C(=O)O)[C@H]3CC[C@@H]2O3)CC1 (stereo partly shown) [Compound 102]
process length [6]: increased process length
total neurite outgrowth [6]: increased total neurite outgrowth
entry into the brain [2]: properties that enhance their entry into the brain
acetylation of histone 3 and histone 4 in brain [2]: increased acetylation of the histones
calcium response to 200 uM glutamate versus DMSO control [7]: statistically significant increase in the NMDA type response to glutamate; also recorded: significantly enhanced the response to glutamate
average % increase in response to glutamate exposure [7]: smaller but statistically significant effect; also recorded: less effective but still had a significant effect
neuronal cell number / protection of cell integrity after stress [8]: little effect on cell number
Akt phosphorylation in xenografts (Akt): increased Akt phosphorylation
inhibition of protein phosphatase 2A (protein phosphatase 2A): inhibit protein phosphatase 2A; also recorded: protein phosphatase 2A inhibitor

inhibition of protein phosphatase 2A (protein phosphatase 2A): inhibit protein phosphatase 2A
SMILES: O=C(O)C1C(C(=O)N2CCN(Cc3ccccc3)CC2)[C@@H]2CC[C@H]1O2 (stereo partly shown) [Compound 103]

inhibition of protein phosphatase 2A (protein phosphatase 2A): inhibit protein phosphatase 2A
SMILES: COc1ccc(CCN2CCC(NC(=O)C3C(C(=O)O)[C@H]4CC[C@@H]3O4)CC2)cc1 (stereo partly shown) [Compound 104]

SMILES: CCN1CCN(C(=O)C2C(C(=O)O)[C@H]3CC[C@@H]2O3)CC1 (stereo partly shown) [Compound 105]
inhibition of protein phosphatase 2A (protein phosphatase 2A): inhibit protein phosphatase 2A

inhibition of protein phosphatase 2A (protein phosphatase 2A): inhibit protein phosphatase 2A
SMILES: CN(C)CCNC(=O)C1C(C(=O)O)[C@H]2CC[C@@H]1O2 (stereo partly shown) [Compound 106]

SMILES: COC(=O)C1C(C(=O)N2CCN(C)CC2)[C@@H]2CC[C@H]1O2 (stereo partly shown) [Compound 107]
inhibition of protein phosphatase 2A (protein phosphatase 2A): inhibit protein phosphatase 2A

SMILES: CN1CCN(C(=O)C2C(C(=O)S)[C@H]3CC[C@@H]2O3)CC1 (stereo partly shown) [Compound 108]
inhibition of protein phosphatase 2A (protein phosphatase 2A): inhibit protein phosphatase 2A

SMILES: O=C(O)C1C(C(=O)N2CCOCC2)[C@@H]2CC[C@H]1O2 (stereo partly shown) [Compound 111]
inhibition of protein phosphatase 2A (protein phosphatase 2A): inhibit protein phosphatase 2A

SMILES: O=C(CCCCCNC(=O)c1ccccc1S)Nc1ccccc1 [Compound 201]
process length [6]: increased process length
total neurite outgrowth [6]: increased total neurite outgrowth
calcium response to 200 uM glutamate versus DMSO control [7]: statistically significant increase in the NMDA type response to glutamate; also recorded: significantly enhanced the response to glutamate
average % increase in response to glutamate exposure [7]: significantly enhanced the response to glutamate
neuronal cell number / protection of cell integrity after stress [8]: marked neurotrophic effects as evidenced by maintenance for up to 21 days neuronal cell numbers; also recorded: statistically significant (p<=0.01) protection of cell integrity
HDAC inhibition (HDAC): class I and II HDAC inhibitor

inhibition of protein phosphatase 2A (protein phosphatase 2A): no anti-PP2A activity
SMILES: O=C(CCCCCNC(=O)c1ccccc1S)Nc1cccnc1 [Compound 205]
p-Akt (western blot) [3]: little effect; also recorded: no effect
HDAC inhibition (HDAC): investigational histone deacetylase inhibitor
